In patent US20130123215A1, “2,5-DIOXOIMIDAZOLIDIN-1-YL-3-PHENYLUREA DERIVATIVES AS FORMYL PEPTIDE RECEPTOR LIKE-1 (FPRL-1) RECEPTOR MODULATORS” (ALLERGAN, INC., priority 2011, published 2013):

Target: T1, FPRL-1 (Homo sapiens, UniProt P25090)
T1 construct: expressed in transfected cells; host or cells: CHO-Gα16 cells stably expressing FPRL1
T1 sequence (P25090 1-351): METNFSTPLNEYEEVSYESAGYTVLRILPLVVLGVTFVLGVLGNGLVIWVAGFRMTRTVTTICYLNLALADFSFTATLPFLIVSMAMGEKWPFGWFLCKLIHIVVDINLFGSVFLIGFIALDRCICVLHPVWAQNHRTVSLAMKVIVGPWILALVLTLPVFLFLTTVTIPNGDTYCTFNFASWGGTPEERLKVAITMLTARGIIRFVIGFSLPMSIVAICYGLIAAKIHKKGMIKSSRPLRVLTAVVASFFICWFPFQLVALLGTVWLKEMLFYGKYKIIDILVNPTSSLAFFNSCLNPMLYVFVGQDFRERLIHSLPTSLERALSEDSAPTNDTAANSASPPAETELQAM
Test: FPRL-1 Ga16-CHO compound-induced calcium activity (FLIPR Tetra)
Format: cell-based
Conditions: CHO-Gα16 cells stably expressing FPRL1; calcium activity on FLIPR Tetra; tested at 0.61 to 10,000 nM; read-out: FPRL-1 Ga16-CHO EC50
Protocol: HEK-Gα16 and CHO-Gα16 cells stably expressing FPRL1 were cultured in (F12, 10% FBS, 1% PSA, 400 μg/ml geneticin and 50 μg/ml hygromycin) and HEK-Gqi5 cells stable expressing FPR1 were cultured in (DMEM high glucose, 10% FBS, 1% PSA, 400 μg/ml geneticin and 50 μg/ml hygromycin). In general, the day before the experiment, 18,000 cells/well were plated in a 384-well clear bottom poly-d-lysine coated plate. The following day the screening compound-induced calcium activity was assayed on the FLIPR^Tetra. The drug plates were prepared in 384-well microplates using the EP3 and the MultiPROBE robotic liquid handling systems. Compounds were tested at concentrations ranging from 0.61 to 10,000 nM. Results are expressed as EC50 (nM) and efficacy values.

An EC50 of 30.2 nM was found for CC1(CCc2ccncc2)NC(=O)N(NC(=O)Nc2ccc(Br)cc2)C1=O (stereo not shown) [Compound 54, 1-(4-Bromophenyl)-3-(4-methyl-2,5-dioxo-4-(2-(pyridin-4-yl)ethyl)imidazolidin-1-yl)urea] in this work.
